In PubChem BioAssay AID2060493 (Molecular Pharmacology Branch, DTP, NCI, 2025):
“And” between values parts separate entries of the source, which are not always exact repeats. Identical values can stand only once.

Tested on: 616215-338-R-J1-PDC tumor spheroids, viability
Assay: Anticancer human tumor 616215-338-R-J1-PDC patient-derived colon adenocarcinoma cell line growth inhibition [GQUAD]
Conditions: spheroids with HUVEC and MSC; for viability, T/C: stronger effect = lower value
Excerpt: DNA G-quadruplex Stabilizer Agents in Combinations in Complex Spheroids
A high-throughput screen of multi-cell type tumor spheroids was designed to identify active combinations of DNA G-quadruplex stabilizer agents and targeted small molecules. Complex spheroids include a stromal component modeled by human endothelial cells (HUVEC) and fibroblasts modeled by human mesenchymal stem cells (MSCs). The concentration ranges selected for each drug and investigational agent were based upon clinically achievable concentrations if the clinical Cmax of the agent was known.
Compounds. The drugs and investigational agents: pidnarulex (CX-5461; NSC782164), APTO-253 (NSC789042), BRACO-19 (NSC847499), peposertib (NSC802822), ceralasertib (NSC780249), elimusertib (NSC800525), camonsertib (NSC841442), AZD-1390 (NSC803789), olaparib (NSC753686), talazoparib (NSC767125), ART-558 (NSC835418), sotorasib (NSC818433), MRTX-1133 (NSC836407), SN-38 (NSC673596), topotecan (NSC609699), etoposide (NSC141540), doxorubicin (NSC123127), gemcitabine (NSC613327), 5-fluorouracil (NSC19893), paclitaxel (NSC125973), vemurafenib (NSC761431), panobinostat (NSC761190), R-306465 (JNJ-16241199; NSC773264), adavosertib (NSC754352), TP-3654 (NSC805149), carboplatin (NSC241240), KSQ-4279 (NSC840948), and staurosporine (NSC755774) were obtained from the National Cancer Institute (NCI) Developmental Therapeutics Program Chemical Repository (34). The FDA-approved anticancer drug set is available from the NCI Developmental Therapeutics Program. […] The stock solutions were prepared in dimethyl sulfoxide (DMSO, Sigma-Aldrich, St. Louis, MO, cat. D2650) at 800-fold the tested concentration and stored at -70 degrees C prior to their use. All drugs and investigational agents were tested over a range starting from a high concentration at or near the clinical Cmax and decreasing in half-log increments. If the clinical Cmax for an agent had not been determined, the highest concentration tested was 10 microM.
2.3 Cell Culture. All cells were maintained in an incubator at 37 degrees C and 5% CO2 with 95% humidity. The PDC lines were cultured according to standard operating procedures established by the NCI PDMR. All PDCs were thawed and cultured in Matrigel-coated flasks prepared with a working solution of 1X Ham's F-12 nutrient mix, without supplementation (Invitrogen, cat. 11765054), 100 U/mL penicillin-streptomycin (Invitrogen, cat. 15140122), and 2.5% Matrigel (Corning Inc., cat. 354248) for the first three passages. The 857933-349-R-J2-PDC line was cultured in 6C/Colon 1B media, which includes advanced DMEM/F-12 (Thermo Fisher Scientific, cat. 12634028), 10 mM HEPES (Thermo Fisher Scientific, cat. 15630080), 1X GlutaMAX supplement (Thermo Fisher Scientific, cat. 35050061), 0.1 mg/mL primocin (InvivoGen, cat. ant-pm-2), 10% defined fetal bovine serum, heat inactivated (HyClone Laboratories Inc., cat. SH30070.03HI), 50% L-WRN conditioned media (ATCC, cat. CRL-3276), 1.25 mM N-Acetyl-L-cysteine (Sigma-Aldrich, cat. A9165), 10 mM nicotinamide (Sigma-Aldrich, cat. N0636), 1X B-27 supplement (Thermo Fisher Scientific, cat. 17504044), 1X N-2 supplement (Thermo Fisher Scientific, cat. 17502048), 10 microM Y-27632 dihydrochloride (Tocris Bioscience, cat. 1254), and 50 ng/mL human EGF recombinant protein (Thermo Fisher Scientific, cat. PHG0311). The 485176-168-R4-J1-PDC line was cultured in Panc media, which includes all 6C/Colon 1B media components plus 100 ng/mL human FGF-10 (Thermo Fisher Scientific, cat. 100-26), 500 nM SB-431542 (Selleckchem, cat. S1067), and gastrin (Tocris, cat. 3006).
[…]
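Note: spheroids exposed to agents for 7 days before readout.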
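Throughout, for viability, T/C: percent viability relative to DMSO vehicle control wells taken as 100%.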

Question: For COc1ccc([C@@H](O)c2cc(-c3ncnc4cc(N5CCOCC5)ccc34)c(F)cc2Cl)nn1, which viability, T/C (compound 0.0316 µM) is on record?
Answer: The viability, T/C was 115% and 98% and 99.7%.

Question: And the viability, T/C (compound 0.1 µM)?
Answer: The viability, T/C was 101% and 102% and 89.1%.

Question: What about the viability, T/C (compound 0.316 µM) of the same compound?
Answer: Its viability, T/C is 98% and 106% and 97.2%.

Question: And the viability, T/C (compound 1 µM)?
Answer: The viability, T/C was 96.9% and 97.6% and 92.6%.

Question: And the viability, T/C (compound 3.16 µM)?
Answer: Its viability, T/C is 97.4% and 100% and 94.8%.

Question: And the viability, T/C (compound 10 µM)?
Answer: Its viability, T/C is 56.7% and 49% and 51.9%.

Question: And the IC50 (curve of compound)?
Answer: Its IC50 is > 10000 nM and 9780 nM.

Question: With C=CC(=O)N1CCN(c2nc(=O)n(-c3c(C)ccnc3C(C)C)c3nc(-c4c(O)cccc4F)c(F)cc23)C(C)C1 (stereo not drawn) + Cc1cnc(CNC(=O)c2c(=O)c3ccc(N4CCCN(C)CC4)nc3n3c2sc2ccccc23)cn1 as the compound, how does the IC50 (curve of first compound, second compound 0.0316 µM) read?
Answer: The IC50 was over 10000 nM.

Question: What about the IC50 (curve of first compound, second compound 0.1 µM) of the same compound?
Answer: Its IC50 is over 10000 nM.

Question: And the IC50 (curve of first compound, second compound 0.316 µM)?
Answer: Its IC50 is 938 nM.

Question: What about the IC50 (curve of first compound, second compound 1 µM) of the same compound?
Answer: The IC50 was under 31.6 nM.

Question: And the IC50 (curve of first compound, second compound 3.16 µM)?
Answer: Its IC50 is under 31.6 nM.

Question: And the IC50 (curve of first compound, second compound 10 µM)?
Answer: Its IC50 is under 31.6 nM.

Question: What about the viability, T/C (second compound 0.0316 µM, first compound 0.0316 µM) of the same compound?
Answer: Its viability, T/C is 106%.

Question: And the viability, T/C (second compound 0.0316 µM, first compound 0.1 µM)?
Answer: Its viability, T/C is 109%.

Question: And the viability, T/C (second compound 0.0316 µM, first compound 0.316 µM)?
Answer: The viability, T/C was 99.1%.

Question: What about the viability, T/C (second compound 0.0316 µM, first compound 1 µM) of the same compound?
Answer: The viability, T/C was 95.9%.

Question: What about the viability, T/C (second compound 0.0316 µM, first compound 3.16 µM) of the same compound?
Answer: Its viability, T/C is 89.2%.

Question: What about the viability, T/C (second compound 0.0316 µM, first compound 10 µM) of the same compound?
Answer: The viability, T/C was 63.7%.

Question: And the viability, T/C (second compound 0.1 µM, first compound 0.0316 µM)?
Answer: Its viability, T/C is 79.8%.

Question: What about the viability, T/C (second compound 0.1 µM, first compound 0.1 µM) of the same compound?
Answer: The viability, T/C was 73.9%.

Question: And the viability, T/C (second compound 0.1 µM, first compound 0.316 µM)?
Answer: Its viability, T/C is 43.4%.

Question: What about the viability, T/C (second compound 0.1 µM, first compound 1 µM) of the same compound?
Answer: Its viability, T/C is 64%.

Question: What about the viability, T/C (second compound 0.1 µM, first compound 3.16 µM) of the same compound?
Answer: The viability, T/C was 94.5%.

Question: And the viability, T/C (second compound 0.1 µM, first compound 10 µM)?
Answer: The viability, T/C was 48.5%.

Question: What about the viability, T/C (second compound 0.316 µM, first compound 0.0316 µM) of the same compound?
Answer: Its viability, T/C is 43.1%.

Question: What about the viability, T/C (second compound 0.316 µM, first compound 0.1 µM) of the same compound?
Answer: The viability, T/C was 69.1%.

Question: And the viability, T/C (second compound 0.316 µM, first compound 0.316 µM)?
Answer: Its viability, T/C is 62.8%.

Question: And the viability, T/C (second compound 0.316 µM, first compound 1 µM)?
Answer: Its viability, T/C is 49.5%.

Question: What about the viability, T/C (second compound 0.316 µM, first compound 3.16 µM) of the same compound?
Answer: The viability, T/C was 43.8%.

Question: What about the viability, T/C (second compound 0.316 µM, first compound 10 µM) of the same compound?
Answer: Its viability, T/C is 47.6%.

Question: What about the viability, T/C (second compound 1 µM, first compound 0.0316 µM) of the same compound?
Answer: The viability, T/C was 30.9%.

Question: And the viability, T/C (second compound 1 µM, first compound 0.1 µM)?
Answer: Its viability, T/C is 41%.

Question: And the viability, T/C (second compound 1 µM, first compound 0.316 µM)?
Answer: The viability, T/C was 38.5%.

Question: What about the viability, T/C (second compound 1 µM, first compound 1 µM) of the same compound?
Answer: Its viability, T/C is 34.4%.

Question: What about the viability, T/C (second compound 1 µM, first compound 3.16 µM) of the same compound?
Answer: Its viability, T/C is 38%.

Question: What about the viability, T/C (second compound 1 µM, first compound 10 µM) of the same compound?
Answer: The viability, T/C was 41.8%.

Question: And the viability, T/C (second compound 3.16 µM, first compound 0.0316 µM)?
Answer: Its viability, T/C is 30.6%.

Question: What about the viability, T/C (second compound 3.16 µM, first compound 0.1 µM) of the same compound?
Answer: The viability, T/C was 36.6%.

Question: What about the viability, T/C (second compound 3.16 µM, first compound 0.316 µM) of the same compound?
Answer: The viability, T/C was 32.9%.

Question: And the viability, T/C (second compound 3.16 µM, first compound 1 µM)?
Answer: The viability, T/C was 26.6%.

Question: What about the viability, T/C (second compound 3.16 µM, first compound 3.16 µM) of the same compound?
Answer: Its viability, T/C is 37%.

Question: And the viability, T/C (second compound 3.16 µM, first compound 10 µM)?
Answer: The viability, T/C was 42.5%.

Question: And the viability, T/C (second compound 10 µM, first compound 0.0316 µM)?
Answer: The viability, T/C was 30.9%.

Question: What about the viability, T/C (second compound 10 µM, first compound 0.1 µM) of the same compound?
Answer: The viability, T/C was 28.6%.

Question: What about the viability, T/C (second compound 10 µM, first compound 0.316 µM) of the same compound?
Answer: Its viability, T/C is 26%.

Question: And the viability, T/C (second compound 10 µM, first compound 1 µM)?
Answer: The viability, T/C was 35.2%.

Question: And the viability, T/C (second compound 10 µM, first compound 3.16 µM)?
Answer: Its viability, T/C is 34.4%.

Question: What about the viability, T/C (second compound 10 µM, first compound 10 µM) of the same compound?
Answer: The viability, T/C was 24.2%.

Question: Which results are given for CC1COCCN1c1cc(-c2ccnn2C)c2ccnc(-c3ccn[nH]3)c2n1 (stereo not drawn)?
Answer: viability, T/C (compound 0.0316 µM): 98.8% and 101% and 103%; viability, T/C (compound 0.1 µM): 51.8% and 57% and 69.5%; viability, T/C (compound 0.316 µM): 38.8% and 31.3% and 37%; viability, T/C (compound 1 µM): 29.2% and 23.1% and 26.1%; viability, T/C (compound 3.16 µM): 24.5% and 18.4% and 26.3%; viability, T/C (compound 10 µM): 27.6% and 18.9% and 17.4%; IC50 (curve of compound): 126 nM and 137 nM and 203 nM

Question: How did the viability, T/C (compound 0.000999 µM) turn out when CC[C@@]1(O)C(=O)OCc2c1cc1n(c2=O)Cc2cc3c(CN(C)C)c(O)ccc3nc2-1 was run?
Answer: Its viability, T/C is 106% and 109% and 103%.

Question: What about the viability, T/C (compound 0.00316 µM) of the same compound?
Answer: Its viability, T/C is 93.6% and 97% and 92.9%.

Question: What about the viability, T/C (compound 0.00999 µM) of the same compound?
Answer: The viability, T/C was 92.7% and 99.7% and 101%.

Question: And the viability, T/C (compound 0.0316 µM)?
Answer: The viability, T/C was 92.8% and 96.2% and 101%.

Question: And the viability, T/C (compound 0.0999 µM)?
Answer: The viability, T/C was 97.8% and 89% and 91.2%.

Question: And the viability, T/C (compound 0.316 µM)?
Answer: The viability, T/C was 50.1% and 44.3% and 47.5%.

Question: What about the IC50 (curve of compound) of the same compound?
Answer: The IC50 was > 316 nM and 273 nM and 297 nM.
